Data: US8063071B2 (GlaxoSmithKline, LLC, priority 2007, dated 2011)
Structures can show the parent of a compound that is named as a salt.

Target: T1, Recombinant human IKKβ (residues 1-737) (Homo sapiens, UniProt O14920)
T1 construct: Recombinant human IKKβ (residues 1-737); GST (C); made in house
T1 sequence (O14920 1-737): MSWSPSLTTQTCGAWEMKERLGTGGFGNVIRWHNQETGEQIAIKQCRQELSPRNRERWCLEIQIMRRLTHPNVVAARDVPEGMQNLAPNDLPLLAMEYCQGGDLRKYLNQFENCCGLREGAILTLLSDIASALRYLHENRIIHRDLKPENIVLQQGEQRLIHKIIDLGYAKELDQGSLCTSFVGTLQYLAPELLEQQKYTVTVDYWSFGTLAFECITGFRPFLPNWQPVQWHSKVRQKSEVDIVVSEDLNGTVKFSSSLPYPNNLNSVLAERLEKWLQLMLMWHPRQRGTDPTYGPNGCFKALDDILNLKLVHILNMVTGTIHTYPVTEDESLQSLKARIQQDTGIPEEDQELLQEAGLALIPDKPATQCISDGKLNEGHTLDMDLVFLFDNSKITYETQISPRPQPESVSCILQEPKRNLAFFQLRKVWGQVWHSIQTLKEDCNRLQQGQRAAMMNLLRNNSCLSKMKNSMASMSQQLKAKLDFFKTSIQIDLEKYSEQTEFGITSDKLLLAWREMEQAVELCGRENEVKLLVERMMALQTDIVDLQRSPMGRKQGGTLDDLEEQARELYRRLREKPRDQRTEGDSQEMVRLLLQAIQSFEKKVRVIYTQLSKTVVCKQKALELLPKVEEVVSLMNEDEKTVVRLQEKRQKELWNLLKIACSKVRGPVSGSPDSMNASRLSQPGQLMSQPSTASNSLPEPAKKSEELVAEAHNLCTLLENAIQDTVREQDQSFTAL
Test: IKK2 assay (TR-FRET)
Type: biochemical
Settings: ATP 1 μM final, read-out: pIC50 against IKK2 (converted)
Procedure: Recombinant human IKKβ (residues 1-737) was expressed in baculovirus as a C-terminal GST-tagged fusion protein, and its activity was assessed using a time-resolved fluorescence resonance energy transfer (TR-FRET) assay. Briefly, IKK2 (0.5 nM-5 nM final) diluted in assay buffer (50 mM HEPES, 10 mM MgCl2, 1 mM CHAPS pH 7.4 with 1 mM DTT and 0.01% w/v BSA) was added to wells containing various concentrations of compound or DMSO vehicle (1.7% final). The reaction was initiated by the addition of GST-IB substrate (25 nM final)/ATP (1 μM final), in a total volume of 6 μl. The reaction was incubated for 15 minutes at room temperature, then terminated by the addition of 3 μl of detection reagent in buffer containing 50 mM EDTA (100 mM HEPES pH 7.4, 150 mM NaCl, 50 mM EDTA and 0.01% w/v BSA) containing antiphosphoserine-IB-32/36 monoclonal antibody 12C2 (Cell Signalling Technology, Beverly Mass., USA) labelled with W-1024 europium chelate (Wallac OY, Turku, Finland), and an APC-labelled anti-GST antibody (Prozyme, San Leandro, Calif., USA) was added and the reaction was further incubated for 60 minutes at room temperature. The degree of phosphorylation of GST-IB was measured using a BMG Rubystar plate reader (BMG Labtech, Aylesbury, UK) as a ratio of specific 665 nm energy transfer signal to reference europium 620 nm signal.

Question: For `CCS(=O)(=O)N1CCC(c2c[nH]c3c(C(N)=O)cc(-c4ccc5c(c4)CN(C(C)C(C)C)C5)cc23)CC1` (stereo not drawn) [Example 421, 5-[2-(1,2-dimethylpropyl)-2,3-dihydro-1H-isoindol-5-yl]-3-[1-(ethylsulfonyl)-4-piperidinyl]-1H-indole-7-carboxamide], which IC50 is on record?
Answer: The IC50 was no more than 10 µM.

Question: How did the IC50 turn out when `CCS(=O)(=O)N1CCC(c2c[nH]c3c(C(N)=O)cc(-c4csc(CN(C)[C@@H]5CCC[C@H]5O)c4)cc23)CC1` [Example 411, 3-[1-(ethylsulfonyl)-4-piperidinyl]-5-(5-{[[(1R,2R)-2-hydroxycyclopentyl](methyl)amino]methyl}-3-thienyl)-1H-indole-7-carboxamide trifluoroacetate] was run?
Answer: The IC50 was no more than 10 µM.

Question: `CCS(=O)(=O)N1CCC(c2c[nH]c3c(C(N)=O)cc(-c4csc(CN5CCCCC5)n4)cc23)CC1` [Example 354, 3-[1-(ethylsulfonyl)-4-piperidinyl]-5-[2-(1-piperidinylmethyl)-1,3-thiazol-4-yl]-1H-indole-7-carboxamide] was tested. Which IC50 did it give?
Answer: Its IC50 is no more than 10 µM.

Question: How did the IC50 turn out when `CCS(=O)(=O)N1CCC(c2c[nH]c3c(C(N)=O)cc(-c4cc(F)cc(CN(C)C)c4)cc23)CC1` [Example 288, 5-{3-[(dimethylamino)methyl]-5-fluorophenyl}-3-[1-(ethylsulfonyl)-4-piperidinyl]-1H-indole-7-carboxamide trifluoroacetate] was run?
Answer: The IC50 was no more than 10 µM.

Question: Which IC50 does the source give for `CCS(=O)(=O)N1CCC(c2c[nH]c3c(C(N)=O)cc(-c4csc(CN(C)C[C@H]5CCCO5)c4)cc23)CC1` [Example 414, 3-[1-(ethylsulfonyl)-4-piperidinyl]-5-[5-({methyl[(2R)-tetrahydro-2-furanylmethyl]amino}methyl)-3-thienyl]-1H-indole-7-carboxamide trifluoroacetate] here?
Answer: Its IC50 is no more than 10 µM.

Question: Which IC50 does the source give for `CCS(=O)(=O)N1CCC(c2c[nH]c3c(C(N)=O)cc(-c4cnn(CCN(C)C)c4)cc23)CC1` [Example 252, 5-{1-[2-(dimethylamino)ethyl]-1H-pyrazol-4-yl}-3-[1-(ethylsulfonyl)-4-piperidinyl]-1H-indole-7-carboxamide] here?
Answer: The IC50 was no more than 10 µM.

Question: For `CCS(=O)(=O)N1CCC(c2c[nH]c3c(C(N)=O)cc(-c4cccc(CNS(=O)(=O)c5csc6ccccc56)c4)cc23)CC1` [Example 382, 5-(3-{[(1-benzothien-3-ylsulfonyl)amino]methyl}phenyl)-3-[1-(ethylsulfonyl)-4-piperidinyl]-1H-indole-7-carboxamide], which IC50 is on record?
Answer: The IC50 was no more than 10 µM.

Question: `CC(C)S(=O)(=O)N1CCC(c2c[nH]c3c(C(N)=O)cc(-c4csc(CN(C)CC(N)=O)c4)cc23)CC1` [Example 398, 5-(5-{[(2-amino-2-oxoethyl)(methyl)amino]methyl}-3-thienyl)-3-{1-[(1-methylethyl)sulfonyl]-4-piperidinyl}-1H-indole-7-carboxamide] was tested. Which IC50 did it give?
Answer: Its IC50 is no more than 10 µM.

Question: Which IC50 does the source give for `CCS(=O)(=O)N1CCC(c2c[nH]c3c(C(N)=O)cc(-c4cc(CNC)c(OC)c(OC)c4)cc23)CC1` [Example 54] here?
Answer: Its IC50 is no more than 10 µM.

Question: How did the IC50 turn out when `CCS(=O)(=O)N1CCC(c2c[nH]c3c(C(N)=O)cc(-c4cc(C#N)cc(CNCC(F)(F)F)c4)cc23)CC1` [Example 41, 5-(3-cyano-5-{[(2,2,2-trifluoroethyl)amino]methyl}phenyl)-3-[1-(ethylsulfonyl)-4-piperidinyl]-1H-indole-7-carboxamide trifluoroacetate] was run?
Answer: The IC50 was no more than 10 µM.

Question: With `CCNCc1ccc(-c2cc(C(N)=O)c3[nH]cc(C4CCN(S(=O)(=O)CC)CC4)c3c2)cc1` [Example 145, 5-{4-[(ethylamino)methyl]phenyl}-3-[1-(ethylsulfonyl)-4-piperidinyl]-1H-indole-7-carboxamide] as the compound, how does the IC50 read?
Answer: The IC50 was no more than 10 µM.

Question: `CCS(=O)(=O)N1CCC(c2c[nH]c3c(C(N)=O)cc(-c4cnn(CCN(C)CCO)c4)cc23)CC1` [Example 268, 3-[1-(ethylsulfonyl)-4-piperidinyl]-5-(1-{2-[(2-hydroxyethyl)(methyl)amino]ethyl}-1H-pyrazol-4-yl)-1H-indole-7-carboxamide] was tested. Which IC50 did it give?
Answer: Its IC50 is no more than 10 µM.

Question: For `CCS(=O)(=O)N1CCC(c2c[nH]c3c(C(N)=O)cc(-c4cc(CN(C)C)cc(CN(C)C)c4)cc23)CC1` [Example 278, 5-{3,5-bis[(dimethylamino)methyl]phenyl}-3-[1-(ethylsulfonyl)-4-piperidinyl]-1H-indole-7-carboxamide trifluoroacetate], which IC50 is on record?
Answer: Its IC50 is greater than 10 µM.

Question: How did the IC50 turn out when `CCNCc1cc(CNCC)cc(-c2cc(C(N)=O)c3[nH]cc(C4CCN(S(=O)(=O)CC)CC4)c3c2)c1` [Example 277, 5-{3,5-bis[(ethylamino)methyl]phenyl}-3-[1-(ethylsulfonyl)-4-piperidinyl]-1H-indole-7-carboxamide trifluoroacetate] was run?
Answer: The IC50 was greater than 10 µM.

Question: With `CCS(=O)(=O)N1CCC(c2c[nH]c3c(C(N)=O)cc(-c4ccc(CN5CCCC5)cc4)cc23)CC1` [Example 149, 3-[1-(ethylsulfonyl)-4-piperidinyl]-5-[4-(1-pyrrolidinylmethyl)phenyl]-1H-indole-7-carboxamide trifluoroacetate] as the compound, how does the IC50 read?
Answer: Its IC50 is no more than 10 µM.

Question: For `CCS(=O)(=O)N1CCC(c2c[nH]c3c(C(N)=O)cc(-c4ccc5c(c4)CN(C(=O)NS(=O)(=O)c4ccccc4)C5)cc23)CC1` [Example 428, 3-[1-(ethylsulfonyl)-4-piperidinyl]-5-(2-{[(phenylsulfonyl)amino]carbonyl}-2,3-dihydro-1H-isoindol-5-yl)-1H-indole-7-carboxamide], which IC50 is on record?
Answer: The IC50 was no more than 10 µM.

Question: With `CCC(CC)N1Cc2ccc(-c3cc(C(N)=O)c4[nH]cc(C5CCN(S(=O)(=O)CC)CC5)c4c3)cc2C1` [Example 423, 5-[2-(1-ethylpropyl)-2,3-dihydro-1H-isoindol-5-yl]-3-[1-(ethylsulfonyl)-4-piperidinyl]-1H-indole-7-carboxamide] as the compound, how does the IC50 read?
Answer: The IC50 was no more than 10 µM.

Question: Which IC50 does the source give for `CCS(=O)(=O)N1CCC(c2c[nH]c3c(C(N)=O)cc(-c4ccc(OC)c(CNC(C)C)c4)cc23)CC1` [Example 265, 3-[1-(ethylsulfonyl)-4-piperidinyl]-5-[3-{[(1-methylethyl)amino]methyl}-4-(methyloxy)phenyl]-1H-indole-7-carboxamide trifluoroacetate] here?
Answer: Its IC50 is no more than 10 µM.

Question: With `CCS(=O)(=O)N1CCC(c2c[nH]c3c(C(N)=O)cc(-c4ccc(CN[C@H](C)C(C)C)s4)cc23)CC1` [Example 183, 5-[5-({[(1R)-1,2-dimethylpropyl]amino}methyl)-2-thienyl]-3-[1-(ethylsulfonyl)-4-piperidinyl]-1H-indole-7-carboxamide] as the compound, how does the IC50 read?
Answer: Its IC50 is no more than 10 µM.

Question: With `CCS(=O)(=O)N1CCC(c2c[nH]c3c(C(N)=O)cc(-c4ccc(CNC[C@@H](C)O)cc4)cc23)CC1` [Example 152, 3-[1-(ethylsulfonyl)-4-piperidinyl]-5-[4-({[(2R)-2-hydroxypropyl]amino}methyl)phenyl]-1H-indole-7-carboxamide trifluoroacetate] as the compound, how does the IC50 read?
Answer: The IC50 was no more than 10 µM.

Question: Which IC50 does the source give for `CCS(=O)(=O)N1CCC(c2c[nH]c3c(C(N)=O)cc(-c4cc(F)cc(CNCC(C)C)c4)cc23)CC1` [Example 286, 3-[1-(ethylsulfonyl)-4-piperidinyl]-5-(3-fluoro-5-{[(2-methylpropyl)amino]methyl}phenyl)-1H-indole-7-carboxamide trifluoroacetate] here?
Answer: The IC50 was no more than 10 µM.

Question: How did the IC50 turn out when `CCS(=O)(=O)N1CCC(c2c[nH]c3c(C(N)=O)cc(-c4cccc(C(C)N(C)C)c4)cc23)CC1` (stereo not drawn) [Example 281, 5-{3-[1-(dimethylamino)ethyl]phenyl}-3-[1-(ethylsulfonyl)-4-piperidinyl]-1H-indole-7-carboxamide trifluoroacetate] was run?
Answer: The IC50 was no more than 10 µM.

Question: With `CCN(C)c1ccc(-c2cc(C(N)=O)c3[nH]cc(C4CCN(S(=O)(=O)CC)CC4)c3c2)cn1` [Example 225, 5-{6-[ethyl(methyl)amino]-3-pyridinyl}-3-[1-(ethylsulfonyl)-4-piperidinyl]-1H-indole-7-carboxamide trifluoroacetate] as the compound, how does the IC50 read?
Answer: Its IC50 is no more than 10 µM.

Question: Which IC50 does the source give for `CCS(=O)(=O)N1CCC(c2c[nH]c3c(C(N)=O)cc(-c4csc(CN(C)C[C@H](C)O)c4)cc23)CC1` [Example 413, 3-[1-(ethylsulfonyl)-4-piperidinyl]-5-(5-{[[(2S)-2-hydroxypropyl](methyl)amino]methyl}-3-thienyl)-1H-indole-7-carboxamide trifluoroacetate] here?
Answer: Its IC50 is no more than 10 µM.
